Measured values taken from patent publication US11358968B2, “Substituted epoxyeicosatrienoic acid (EET) analogs for treatment of kidney disease” (THE MEDICAL COLLEGE OF WISCONSIN, INC., priority 2017, dated 2022).
“Also recorded” adds a separate entry of the source. Where two headings read alike, the source gives them in different places.

Experiments:
[1] = earlier filings PCT/US2012/032090, US 9,422,318, US 9,127,027; cited from earlier work
[2] = Acute i.v. infusion in rats; plasma and kidney levels by LC-MS-MS; assay type: in vivo, rat; conditions: for concentration at 6 h: male, Sprague-Dawley, intravenous
Method: For EET analog kidney-targeted delivery, we conjugated an EET analog to folic acid because there is a high concentration of folate receptors in renal tissue. The EET analog was conjugated to folic acid via a PEG-diamine linker. Next, we compared the kidney targeted EET analog, EET-FO1, to a well-studied EET analog, EET-A. EET-A or EET-FO1 was infused i.v. (10 mg/kg/hr) for 6 hours via the rat jugular vein. Plasma and kidney tissue were collected and EET-A or EET-FO1 measured by LC-MS-MS. EET-A plasma level was 1.6 ng/mL, but EET-A was undetectable in the kidney. On the other hand, EET-FO1 was 6.5 ng/mL in plasma and 26.7 ng/mL in kidney tissue. […] Experiments were conducted to compare EET-FO1 and EET-A to decrease cisplatin-induced nephrotoxicity. […] Despite it almost 2×-greater molecular weight compared with EET-A, EET-FO1 was effective in lowering BUN and NAG at 20 mg/kg/d and at a 10-fold lower dose of 2 mg/kg/d.
Acute study: Overnight fasted (12-14 hrs) male SD rats (10 weeks old) were anesthetized with sodium pentobarbital (60 mg/kg, i.p.). After a tracheostomy, the left jugular vein was cannulated to continuously infuse vehicle or EET-A or folate conjugated EET analog at a rate of 6 ml/kg/hr for 6 hours. Plasma and kidney sample were collected at the end of the protocol, snap-frozen in liquid nitrogen and stored at −80° C. until analyzed for LC-MS. EET-A and folate conjugated EET analog solutions were prepared in 0.1% DMSO and 1% PEG-400 in saline.
Mass spectrometric analysis: Plasma and kidney levels of EET-A and folate conjugated EET-A were measured by LC-ESI-MS method. Samples were prepared from 200 μl of plasma or kidney homogenate from EET-A or folate conjugated EET-A treated rats using solid phase extraction with Varian Bond Elut® C18 column (Agilent Technologies, Santa Clara, Calif., USA). The extracted samples were stored at −80° C. before analysis. Samples were warmed to room temperature, dried in a stream of nitrogen and the residue reconstituted in 20 μL of acetonitrile, […]. Components were resolved on a 250 mm×2.0 mm Kromasil C18-column packed with 5 μm diameter particles having 100 Å pores. Gradient elution from 80% A to 10% A was used with elutant flow of 0.2 mL/min. Solvent A was water with 0.01% formic acid and solvent B was acetonitrile with 0.01% formic acid using the following profile: 20% B to 30% B in 10 min, 30% B to 60% B in 17 min, 60% B to 90% B in 28 min, hold at 100% for 7 min, then 7 min re-equilibration. MS/MS analysis was performed on an Agilent 6460 triple quadrupole mass spectrometer equipped with a Jet Stream™ interface. Precursor ion, product ion, collision energy and fragmenter voltage were optimized for each compound in negative polarity. Other parameters were as follows: drying gas flow=10 L/min at 325° C., nebulizer=20 psi, sheath gas flow=11 L/min at 325° C., capillary=3.5 kV, and nozzle=1.0 kV. Results acquired at unit-mass resolution.

WKY rats = test: Cisplatin-induced nephrotoxicity in WKY rats (chronic study; BUN, NAG, renal histology); assay type: in vivo, rat; conditions: for lowering BUN / lowering NAG: cisplatin-treated WKY rats
Method: For EET analog kidney-targeted delivery, we conjugated an EET analog to folic acid because there is a high concentration of folate receptors in renal tissue. The EET analog was conjugated to folic acid via a PEG-diamine linker. Next, we compared the kidney targeted EET analog, EET-FO1, to a well-studied EET analog, EET-A. EET-A or EET-FO1 was infused i.v. (10 mg/kg/hr) for 6 hours via the rat jugular vein. Plasma and kidney tissue were collected and EET-A or EET-FO1 measured by LC-MS-MS.
Chronic study: In chronic study, male Wistar-Kyoto (WKY) rats weighing 180-200 g (Charles River, Mass., USA) were used. The rats were assigned into […] (n=4 in each group). […] While, rats of groups 2,3,4&5 were pre-treated with vehicle (20% DMSO in PEG-400 v/v), EET analog (EET analog in double distilled water) or novel folate conjugated EET analog F01 at 20 mg/kg and 2 mg/kg doses (prepared in a mixture of 20% DMSO in PEG400), respectively in osmotic mini pump (2 ML, Alzet, Cupertino, C A) for seven days. […] One day before euthanasia, the urine of each rat was collected over a 24-h period. […] A schematic of the protocol is depicted in FIG. 1.
Biochemical analysis:The levels of blood urea nitrogen (BUN) (BioAssay Systems, Hayward, Calif., USA) and the activity of urinary N-acetyl-β-(D)-glucosaminidase (NAG) in the urine was measured by a kit from Diazyme (Diazyme Laboratories, Poway, Calif., USA).

[3] = rat, i.v. infusion 10 mg/kg/hr for 6 hours via jugular vein, LC-MS-MS
[4] = five days following cisplatin 7 mg/kg ip, compared with EET-A 10 mg/kg ip

Row | plasma level [2, 3] [ng/mL] | rate of reaching the plasma and the kidney, versus non-folate conjugated form ([2]; acute i.v. study) | plasma level of F01 compared to EET-A ([2]; after 6-hour continuous i.v. administration of equal doses (FIG. 2)) [fold] | kidney targeting ([2]; conclusion from plasma and kidney levels after 6 h i.v. infusion) | concentration at 6 h ([2]; kidney, rat, i.v. infusion 10 mg/kg/hr for 6 hours via jugular vein, LC-MS-MS, read-out: level in kidney tissue) [ng/mL] | concentration at 6 h ([2]; plasma, rat, i.v. infusion 10 mg/kg/hr for 6 hours via jugular vein, LC-MS-MS, read-out: plasma level) [ng/mL] | SMILES | oral activity and pharmacokinetic properties [1] | level in kidney tissue [2, 3] | lowering BUN (WKY rats; 2 mg/kg/d) | lowering NAG (WKY rats; 2 mg/kg/d) | lowering BUN (WKY rats; 20 mg/kg/d) | lowering NAG (WKY rats; 20 mg/kg/d) | decreasing BUN (WKY rats; [4]) | decreasing NAG (WKY rats; [4]) | decreasing renal histological injury (WKY rats; [4]) | kidney protective action against cisplatin nephrotoxicity compared to EET-A (from BUN and urinary NAG) (WKY rats; pre-treatment, then 5 days treatment after cisplatin (FIG. 3), listed as F01)
1 | 1.6 |  |  |  |  |  | CCCCCNC(=O)NCCCC/C=C\CCCCCCC(=O)N[C@@H](CC(=O)O)C(=O)O [EET-A, reference compound] | orally active with good pharmacokinetic properties | undetectable; also recorded: almost un-detectable |  |  |  |  |  |  |  | 
2 |  |  |  |  |  |  | CCCCCCC(=O)N(CCCCCOc1cccc2sc(NC(=O)C(C)(C)C)nc12)C(C)C [EET-B] | orally active with good pharmacokinetic properties |  |  |  |  |  |  |  |  | 
3 |  | faster rate | 5 | targets the kidney | 26.7 | 6.5 | CCCCCNC(=O)NCCCC/C=C\CCCCCCC(=O)NCCOCCOCCNC(=O)CC[C@H](NC(=O)c1ccc(NCc2cnc3nc(N)[nH]c(=O)c3n2)cc1)C(=O)O [EET-FO1] |  |  | effective | effective | effective | effective | as effective as EET-A | as effective as EET-A | as effective as EET-A | better kidney protective action; also recorded: superior kidney protective action
